Molecular target: B-Raf kinase (Homo sapiens (Human), UniProt P15056)
Experiment: Inhibitory activity at B-Raf kinase (ADP-GLO assay)
Format: biochemical
Settings: not given
Method: Inhibitory Activity of Compounds at B-Raf Kinase
• [Experimental method]: Use ADP-GLO™ assay kit from Promega to evaluate the inhibitory activity of compounds at B-Raf • [Instrument]: PerKinElmer's ENVISION plate reader • [Material]: Optiplate-384 well plate (PerKinElmer), kinase buffer (50 mM Hepes pH7.5, 1 mM EGTA, 2 mM DTT, 10 mM Mg^2+, 0.05% BSA), B-Raf kinase (Millipore, catalogue #14-530-K), GST-MEK1 substrate (Carna, catalogue #07-141-10), Super pure ATP (Promega), ADP-GLO™ assay kit (Promega, catalogue # V9102), DMSO (Sigma, catalogue #34869), purified water (Millipore, type: Milli-Q). • [Study conditions]: Mix B-Raf kinase (final concentration: 5 nM) and compound (DMSO final concentration: 0.25%) and preincubate at 30° C. for 20 min, then add ATP (final concentration: 6 μM) and reaction substrate (final concentration: 30 nM), React for 2 hrs at 30° C. After reaction, add ADP-GLO™ reagent, react for 40 min at room temperature, then add ADP-GLO™ detecting agent, react for 30 min at room temperature. After that, use ENVSION to measure the […]. • [Samples]: Compounds in the examples and Sorafenib (positive control) • [Data analysis]: Use CBIS data analysis software to calculate IC50 values

Chain of B-Raf kinase (P15056 416-766): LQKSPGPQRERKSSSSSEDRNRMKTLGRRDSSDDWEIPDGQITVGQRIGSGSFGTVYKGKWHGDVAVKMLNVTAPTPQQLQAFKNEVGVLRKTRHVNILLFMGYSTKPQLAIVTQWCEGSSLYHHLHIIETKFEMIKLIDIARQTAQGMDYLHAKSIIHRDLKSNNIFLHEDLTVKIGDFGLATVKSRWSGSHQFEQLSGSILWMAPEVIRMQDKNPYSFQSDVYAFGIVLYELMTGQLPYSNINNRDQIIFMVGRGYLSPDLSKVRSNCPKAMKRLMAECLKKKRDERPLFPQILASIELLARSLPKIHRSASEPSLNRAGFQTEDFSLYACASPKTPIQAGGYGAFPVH

Row | IC50 [nM] | Compound
1 | 24 | C=CC(=O)Nc1cc(NC(=O)Nc2ccc(Oc3ccnc(NC(=O)C4CC4)c3)c(F)c2)cc(C(F)(F)F)c1 [Exe. 163]
2 | 71.5 | CN1CCC(Oc2cc(NC(=O)Nc3ccc(Oc4ccnc(NC(=O)C5CC5)c4)c(F)c3)cc(C(F)(F)F)c2)CC1 [Exe. 164]
3 | 6.6 | CS(=O)(=O)Nc1cc(NC(=O)Nc2ccc(Oc3ccnc(NC(=O)C4CC4)c3)c(F)c2)cc(C(F)(F)F)c1 [Exe. 165]
4 | 27 | O=C(Nc1cc(N2CCS(=O)(=O)CC2)cc(C(F)(F)F)c1)Nc1ccc(Oc2ccnc(NC(=O)C3CC3)c2)c(F)c1 [Exe. 166]
5 | 23.8 | CN1CCN(Cc2cc(NC(=O)Nc3ccc(Oc4ccnc(NC(=O)C5CC5)c4)c(F)c3)cc(C(F)(F)F)c2)CC1 [Exe. 167]
6 | 7.9 | CN1CCC(Nc2ccc(NC(=O)Nc3ccc(Oc4ccnc(NC(=O)C5CC5)c4)c(F)c3)cc2C(F)(F)F)CC1 [Exe. 168]
7 | 96 | O=C(Nc1ccc(Oc2ccnc(NC(=O)C3CC3)c2)c(F)c1)Nc1cc(C(F)(F)F)ncn1 [Exe. 170]
8 | 9.8 | O=C(Nc1cccc(OC(F)(F)F)c1)Nc1ccc(Oc2ccnc(NC(=O)C3CC3)c2)c(F)c1 [Exe. 175]
9 | 34.7 | O=C(Nc1ccc(OC(F)(F)F)cc1)Nc1ccc(Oc2ccnc(NC(=O)C3CC3)c2)c(F)c1 [Exe. 178]
10 | 4.8 | CC(F)(F)c1ccc(F)c(NC(=O)Nc2ccc(Oc3ccnc(NC(=O)C4CC4)c3)c(F)c2)c1 [Exe. 181]
11 | 32 | CC(F)(F)c1cc(NC(=O)Nc2ccc(Oc3ccnc(NC(=O)C4CC4)c3)c(F)c2)ccc1Cl [Exe. 182]
12 | 56 | CC(F)(F)c1cc(NC(=O)Nc2ccc(Oc3ccnc(NC(=O)C4CC4)c3)c(F)c2)ccc1F [Exe. 183]
13 | 73.4 | O=C(Nc1ccc(Oc2ccnc(NC(=O)C3CC3)c2)c(F)c1)Nc1cc(Cl)ccc1F [Exe. 184]
14 | 27.5 | O=C(Nc1cc(-c2cccnc2)cc(C(F)(F)F)c1)Nc1ccc(Oc2ccnc(NC(=O)C3CC3)c2)c(F)c1 [Exe. 186]
15 | 34.3 | CC(C)Nc1cc(NC(=O)Nc2ccc(Oc3ccnc(NC(=O)C4CC4)c3)c(F)c2)cc(C(F)(F)F)c1 [Exe. 187]
16 | 19 | CN1CCC(Oc2ccc(NC(=O)Nc3ccc(Oc4ccnc(NC(=O)C5CC5)c4)c(F)c3)cc2C(F)(F)F)CC1 [Exe. 188]
17 | 29.8 | O=C(Nc1cc(N2CCOCC2)cc(C(F)(F)F)c1)Nc1ccc(Oc2ccnc(NC(=O)C3CC3)c2)c(F)c1 [Exe. 189]

Molecular target: KDR kinase (790-1356 AA) (Homo sapiens (Human), UniProt P35968)
Experiment: Inhibitory activity at KDR kinase (Lance Ultra Ulight-TK assay)
Format: biochemical
Settings: not given
Summary of the method: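 TR-FRET (Eu-anti-phosphotyrosine PT66) with 20 nM KDR preincubated with compound 20 min at 30 °C in HEPES pH 7.5 buffer with Mg2+/Mn2+, 0.5% DMSO.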

Chain of KDR kinase (790-1356 AA) (P35968 790-1356): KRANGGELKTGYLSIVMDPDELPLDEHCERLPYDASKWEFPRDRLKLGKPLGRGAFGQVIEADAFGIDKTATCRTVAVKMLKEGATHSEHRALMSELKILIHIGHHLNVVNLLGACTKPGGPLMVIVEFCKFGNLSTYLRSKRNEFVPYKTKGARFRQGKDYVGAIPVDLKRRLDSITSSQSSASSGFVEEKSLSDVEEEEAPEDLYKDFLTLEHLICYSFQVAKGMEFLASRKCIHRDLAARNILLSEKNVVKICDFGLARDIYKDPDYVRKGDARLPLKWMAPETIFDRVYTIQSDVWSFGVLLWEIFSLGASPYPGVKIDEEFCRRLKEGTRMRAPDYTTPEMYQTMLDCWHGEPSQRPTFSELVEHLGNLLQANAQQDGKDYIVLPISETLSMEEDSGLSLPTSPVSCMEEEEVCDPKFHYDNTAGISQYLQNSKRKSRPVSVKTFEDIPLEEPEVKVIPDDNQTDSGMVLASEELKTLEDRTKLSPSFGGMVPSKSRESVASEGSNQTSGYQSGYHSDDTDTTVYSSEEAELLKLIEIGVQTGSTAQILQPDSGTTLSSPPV

Row | IC50 [nM] | Compound
18 | 11.6 | C=CC(=O)Nc1cc(NC(=O)Nc2ccc(Oc3ccnc(NC(=O)C4CC4)c3)c(F)c2)cc(C(F)(F)F)c1 [Exe. 163]
19 | 30.7 | CN1CCC(Oc2cc(NC(=O)Nc3ccc(Oc4ccnc(NC(=O)C5CC5)c4)c(F)c3)cc(C(F)(F)F)c2)CC1 [Exe. 164]
20 | 5.5 | CS(=O)(=O)Nc1cc(NC(=O)Nc2ccc(Oc3ccnc(NC(=O)C4CC4)c3)c(F)c2)cc(C(F)(F)F)c1 [Exe. 165]
21 | 11.5 | O=C(Nc1cc(N2CCS(=O)(=O)CC2)cc(C(F)(F)F)c1)Nc1ccc(Oc2ccnc(NC(=O)C3CC3)c2)c(F)c1 [Exe. 166]
22 | 16.1 | CN1CCN(Cc2cc(NC(=O)Nc3ccc(Oc4ccnc(NC(=O)C5CC5)c4)c(F)c3)cc(C(F)(F)F)c2)CC1 [Exe. 167]
23 | 12 | CN1CCC(Nc2ccc(NC(=O)Nc3ccc(Oc4ccnc(NC(=O)C5CC5)c4)c(F)c3)cc2C(F)(F)F)CC1 [Exe. 168]
24 | 5.6 | O=C(Nc1ccc(Oc2ccnc(NC(=O)C3CC3)c2)c(F)c1)Nc1cc(C(F)(F)F)ncn1 [Exe. 170]
25 | 4.9 | O=C(Nc1cccc(OC(F)(F)F)c1)Nc1ccc(Oc2ccnc(NC(=O)C3CC3)c2)c(F)c1 [Exe. 175]
26 | 5.3 | O=C(Nc1ccc(OC(F)(F)F)cc1)Nc1ccc(Oc2ccnc(NC(=O)C3CC3)c2)c(F)c1 [Exe. 178]
27 | 7.1 | CC(F)(F)c1ccc(F)c(NC(=O)Nc2ccc(Oc3ccnc(NC(=O)C4CC4)c3)c(F)c2)c1 [Exe. 181]
28 | 14.7 | CC(F)(F)c1cc(NC(=O)Nc2ccc(Oc3ccnc(NC(=O)C4CC4)c3)c(F)c2)ccc1Cl [Exe. 182]
29 | 13.6 | CC(F)(F)c1cc(NC(=O)Nc2ccc(Oc3ccnc(NC(=O)C4CC4)c3)c(F)c2)ccc1F [Exe. 183]
30 | 7.6 | O=C(Nc1ccc(Oc2ccnc(NC(=O)C3CC3)c2)c(F)c1)Nc1cc(Cl)ccc1F [Exe. 184]
31 | 5 | O=C(Nc1cc(-c2cccnc2)cc(C(F)(F)F)c1)Nc1ccc(Oc2ccnc(NC(=O)C3CC3)c2)c(F)c1 [Exe. 186]
32 | 6.8 | CC(C)Nc1cc(NC(=O)Nc2ccc(Oc3ccnc(NC(=O)C4CC4)c3)c(F)c2)cc(C(F)(F)F)c1 [Exe. 187]
33 | 17.2 | CN1CCC(Oc2ccc(NC(=O)Nc3ccc(Oc4ccnc(NC(=O)C5CC5)c4)c(F)c3)cc2C(F)(F)F)CC1 [Exe. 188]
34 | 10.7 | O=C(Nc1cc(N2CCOCC2)cc(C(F)(F)F)c1)Nc1ccc(Oc2ccnc(NC(=O)C3CC3)c2)c(F)c1 [Exe. 189]

System: PLC-PRF-5 cells
Experiment: Inhibition of proliferation of PLC-PRF-5 cells (ATPlite)
Format: cell-based
Settings: Homo sapiens, PLC-PRF-5, PLC-PRF-5 cells; read-out: PLC-PRF-5 cell proliferation IC50
Summary of the method: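 PLC-PRF-5 cells in DMEM/10% FBS, seeded 2 h before compound; 8-point 3-fold dilutions from 30 μM final top, 0.3% DMSO. After 96 h at 37 °C, 5% CO2, ATP content read by ATPlite luminescence; IC50 calculated.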

Row | Compound | IC50 [nM]
35 | C=CC(=O)Nc1cc(NC(=O)Nc2ccc(Oc3ccnc(NC(=O)C4CC4)c3)c(F)c2)cc(C(F)(F)F)c1 [Exe. 163] | 998
36 | CN1CCC(Oc2cc(NC(=O)Nc3ccc(Oc4ccnc(NC(=O)C5CC5)c4)c(F)c3)cc(C(F)(F)F)c2)CC1 [Exe. 164] | 2950
37 | CS(=O)(=O)Nc1cc(NC(=O)Nc2ccc(Oc3ccnc(NC(=O)C4CC4)c3)c(F)c2)cc(C(F)(F)F)c1 [Exe. 165] | 1070
38 | O=C(Nc1cc(N2CCS(=O)(=O)CC2)cc(C(F)(F)F)c1)Nc1ccc(Oc2ccnc(NC(=O)C3CC3)c2)c(F)c1 [Exe. 166] | 1640
39 | CN1CCN(Cc2cc(NC(=O)Nc3ccc(Oc4ccnc(NC(=O)C5CC5)c4)c(F)c3)cc(C(F)(F)F)c2)CC1 [Exe. 167] | 1230
40 | CN1CCC(Nc2ccc(NC(=O)Nc3ccc(Oc4ccnc(NC(=O)C5CC5)c4)c(F)c3)cc2C(F)(F)F)CC1 [Exe. 168] | 31
41 | O=C(Nc1ccc(Oc2ccnc(NC(=O)C3CC3)c2)c(F)c1)Nc1cc(C(F)(F)F)ncn1 [Exe. 170] | 230
42 | O=C(Nc1cccc(OC(F)(F)F)c1)Nc1ccc(Oc2ccnc(NC(=O)C3CC3)c2)c(F)c1 [Exe. 175] | 270
43 | O=C(Nc1ccc(OC(F)(F)F)cc1)Nc1ccc(Oc2ccnc(NC(=O)C3CC3)c2)c(F)c1 [Exe. 178] | 4880
44 | CC(F)(F)c1ccc(F)c(NC(=O)Nc2ccc(Oc3ccnc(NC(=O)C4CC4)c3)c(F)c2)c1 [Exe. 181] | 23
45 | CC(F)(F)c1cc(NC(=O)Nc2ccc(Oc3ccnc(NC(=O)C4CC4)c3)c(F)c2)ccc1Cl [Exe. 182] | 752
46 | CC(F)(F)c1cc(NC(=O)Nc2ccc(Oc3ccnc(NC(=O)C4CC4)c3)c(F)c2)ccc1F [Exe. 183] | 230
47 | O=C(Nc1ccc(Oc2ccnc(NC(=O)C3CC3)c2)c(F)c1)Nc1cc(Cl)ccc1F [Exe. 184] | 610
48 | O=C(Nc1cc(-c2cccnc2)cc(C(F)(F)F)c1)Nc1ccc(Oc2ccnc(NC(=O)C3CC3)c2)c(F)c1 [Exe. 186] | 640
49 | CC(C)Nc1cc(NC(=O)Nc2ccc(Oc3ccnc(NC(=O)C4CC4)c3)c(F)c2)cc(C(F)(F)F)c1 [Exe. 187] | 638
50 | CN1CCC(Oc2ccc(NC(=O)Nc3ccc(Oc4ccnc(NC(=O)C5CC5)c4)c(F)c3)cc2C(F)(F)F)CC1 [Exe. 188] | 34
51 | O=C(Nc1cc(N2CCOCC2)cc(C(F)(F)F)c1)Nc1ccc(Oc2ccnc(NC(=O)C3CC3)c2)c(F)c1 [Exe. 189] | 260

System: pERK in MDA-MB-231 cells
Experiment: Inhibitory activity at pERK (In Cell Western, MDA-MB-231 cells)
Format: cell-based
Settings: Homo sapiens, MDA-MB-231, MDA-MB-231 cells; read-out: MDA-MB-231 pERK IC50
Summary of the method: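 MDA-MB-231 cells were treated 2 h at 37 °C with 8 compound concentrations in 3-fold dilutions from 30 μM top (0.3% DMSO, DMEM with 0.1% BSA). Cells were then fixed, methanol-permeabilized and immunostained for pERK with PI counterstain. Fluorescence was read on Acumen and IC50 calculated.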

Row | IC50 [nM] | Compound
52 | 32.9 | C=CC(=O)Nc1cc(NC(=O)Nc2ccc(Oc3ccnc(NC(=O)C4CC4)c3)c(F)c2)cc(C(F)(F)F)c1 [Exe. 163]
53 | 198 | CN1CCC(Oc2cc(NC(=O)Nc3ccc(Oc4ccnc(NC(=O)C5CC5)c4)c(F)c3)cc(C(F)(F)F)c2)CC1 [Exe. 164]
54 | 41 | CS(=O)(=O)Nc1cc(NC(=O)Nc2ccc(Oc3ccnc(NC(=O)C4CC4)c3)c(F)c2)cc(C(F)(F)F)c1 [Exe. 165]
55 | 45.5 | O=C(Nc1cc(N2CCS(=O)(=O)CC2)cc(C(F)(F)F)c1)Nc1ccc(Oc2ccnc(NC(=O)C3CC3)c2)c(F)c1 [Exe. 166]
56 | 262 | CN1CCN(Cc2cc(NC(=O)Nc3ccc(Oc4ccnc(NC(=O)C5CC5)c4)c(F)c3)cc(C(F)(F)F)c2)CC1 [Exe. 167]
57 | 11.6 | CN1CCC(Nc2ccc(NC(=O)Nc3ccc(Oc4ccnc(NC(=O)C5CC5)c4)c(F)c3)cc2C(F)(F)F)CC1 [Exe. 168]
58 | 31.6 | O=C(Nc1ccc(Oc2ccnc(NC(=O)C3CC3)c2)c(F)c1)Nc1cc(C(F)(F)F)ncn1 [Exe. 170]
59 | 30.5 | O=C(Nc1cccc(OC(F)(F)F)c1)Nc1ccc(Oc2ccnc(NC(=O)C3CC3)c2)c(F)c1 [Exe. 175]
60 | 159 | O=C(Nc1ccc(OC(F)(F)F)cc1)Nc1ccc(Oc2ccnc(NC(=O)C3CC3)c2)c(F)c1 [Exe. 178]
61 | 25.7 | CC(F)(F)c1ccc(F)c(NC(=O)Nc2ccc(Oc3ccnc(NC(=O)C4CC4)c3)c(F)c2)c1 [Exe. 181]
62 | 17 | CC(F)(F)c1cc(NC(=O)Nc2ccc(Oc3ccnc(NC(=O)C4CC4)c3)c(F)c2)ccc1Cl [Exe. 182]
63 | 15.7 | CC(F)(F)c1cc(NC(=O)Nc2ccc(Oc3ccnc(NC(=O)C4CC4)c3)c(F)c2)ccc1F [Exe. 183]
64 | 310 | O=C(Nc1ccc(Oc2ccnc(NC(=O)C3CC3)c2)c(F)c1)Nc1cc(Cl)ccc1F [Exe. 184]
65 | 53.3 | O=C(Nc1cc(-c2cccnc2)cc(C(F)(F)F)c1)Nc1ccc(Oc2ccnc(NC(=O)C3CC3)c2)c(F)c1 [Exe. 186]
66 | 63.8 | CC(C)Nc1cc(NC(=O)Nc2ccc(Oc3ccnc(NC(=O)C4CC4)c3)c(F)c2)cc(C(F)(F)F)c1 [Exe. 187]
67 | 23.5 | CN1CCC(Oc2ccc(NC(=O)Nc3ccc(Oc4ccnc(NC(=O)C5CC5)c4)c(F)c3)cc2C(F)(F)F)CC1 [Exe. 188]
68 | 19.3 | O=C(Nc1cc(N2CCOCC2)cc(C(F)(F)F)c1)Nc1ccc(Oc2ccnc(NC(=O)C3CC3)c2)c(F)c1 [Exe. 189]

Reference: patent publication US9359338B2, “Cyclopropanecarboxamido-substitute aromatic compounds as anti-tumor agents” (Crown Bioscience Inc. (Taiwan), priority 2012, dated 2016)
